Test results published in publication PMC12670405, “Second-Generation AURKA-Targeting PROTACs: Structural Optimization toward in Vivo Degradation in Neuroblastoma” (Journal of Medicinal Chemistry, 2025).

Assays:
Assay in all cases: KINOMEscan scanMAX
Format in all cases: binding
Settings in all cases: read-out: Percent Control
KIT = target: T1, KIT (Homo sapiens, UniProt P10721)
T1 construct: purchased Eurofins Discovery (DiscoverX KINOMEscan scanMAX)
Procedure: (§1) The kinome-wide binding assay was performed by Eurofins Discovery using the scanMAX screening platform. More information can be found on the Eurofins Discovery Web site.

STK16 = target: T2, STK16 (Homo sapiens, UniProt O75716)
T2 construct: purchased Eurofins Discovery (DiscoverX KINOMEscan scanMAX)
Procedure: as §1

TBK1 = target: T3, TBK1 (Homo sapiens, UniProt Q9UHD2)
T3 construct: purchased Eurofins Discovery (DiscoverX KINOMEscan scanMAX)
Procedure: as §1

GRK2 = target: T4, GRK2 (Homo sapiens, UniProt P25098)
T4 construct: purchased Eurofins Discovery (DiscoverX KINOMEscan scanMAX)
Procedure: as §1

EGFR(L858R,T790M) = target: T5, EGFR(L858R,T790M) (Homo sapiens, UniProt P00533, L858R/T790M)
T5 construct: purchased Eurofins Discovery (DiscoverX KINOMEscan scanMAX)
Procedure: as §1

[1] = target: T6, ABL1(H396P)-nonphosphorylated (Homo sapiens, UniProt P00519, H396P)
T6 construct: purchased Eurofins Discovery (DiscoverX KINOMEscan scanMAX)
Procedure: as §1

MRCKB = target: T7, MRCKB (Homo sapiens, UniProt Q9Y5S2)
T7 construct: purchased Eurofins Discovery (DiscoverX KINOMEscan scanMAX)
Procedure: as §1

MEK3 = target: T8, MEK3 (Homo sapiens, UniProt P46734)
T8 construct: purchased Eurofins Discovery (DiscoverX KINOMEscan scanMAX)
Procedure: as §1

MEK1 = target: T9, MEK1 (Homo sapiens, UniProt Q02750)
T9 construct: purchased Eurofins Discovery (DiscoverX KINOMEscan scanMAX)
Procedure: as §1

BRAF(V600E) = target: T10, BRAF(V600E) (Homo sapiens, UniProt P15056, V600E)
T10 construct: purchased Eurofins Discovery (DiscoverX KINOMEscan scanMAX)
Procedure: as §1

SIK = target: T11, SIK (Homo sapiens, UniProt P57059)
T11 construct: purchased Eurofins Discovery (DiscoverX KINOMEscan scanMAX)
Procedure: as §1

S6K1 = target: T12, S6K1 (Homo sapiens, UniProt P23443)
T12 construct: purchased Eurofins Discovery (DiscoverX KINOMEscan scanMAX)
Procedure: as §1

AURKB = target: T13, AURKB (Homo sapiens, UniProt Q96GD4)
T13 construct: purchased Eurofins Discovery
Procedure: as §1

CSNK1A1L = target: T14, CSNK1A1L (Homo sapiens, UniProt Q8N752)
T14 construct: purchased Eurofins Discovery (DiscoverX KINOMEscan scanMAX)
Procedure: as §1

MARK1 = target: T15, MARK1 (Homo sapiens, UniProt Q9P0L2)
T15 construct: purchased Eurofins Discovery (DiscoverX KINOMEscan scanMAX)
Procedure: as §1

PIK4CB = target: T16, PIK4CB (Homo sapiens, UniProt Q9UBF8)
T16 construct: purchased Eurofins Discovery (DiscoverX KINOMEscan scanMAX)
Procedure: as §1

EPHB1 = target: T17, EPHB1 (Homo sapiens, UniProt P54762)
T17 construct: purchased Eurofins Discovery (DiscoverX KINOMEscan scanMAX)
Procedure: as §1

QSK = target: T18, QSK (Homo sapiens, UniProt Q9Y2K2)
T18 construct: purchased Eurofins Discovery (DiscoverX KINOMEscan scanMAX)
Procedure: as §1

CLK1 = target: T19, CLK1 (Homo sapiens, UniProt P49759)
T19 construct: purchased Eurofins Discovery (DiscoverX KINOMEscan scanMAX)
Procedure: as §1

PIK3CA(M1043I) = target: T20, PIK3CA(M1043I) (Homo sapiens, UniProt P42336, M1043I)
T20 construct: purchased Eurofins Discovery (DiscoverX KINOMEscan scanMAX)
Procedure: as §1

INSR = target: T21, INSR (Homo sapiens, UniProt P06213)
T21 construct: purchased Eurofins Discovery (DiscoverX KINOMEscan scanMAX)
Procedure: as §1

AKT1 = target: T22, AKT1 (Homo sapiens, UniProt P31749)
T22 construct: purchased Eurofins Discovery (DiscoverX KINOMEscan scanMAX)
Procedure: as §1

TNK1 = target: T23, TNK1 (Homo sapiens, UniProt Q13470)
T23 construct: purchased Eurofins Discovery (DiscoverX KINOMEscan scanMAX)
Procedure: as §1

KIT(V559D,V654A) = target: T24, KIT(V559D,V654A) (Homo sapiens, UniProt P10721, V559D/V654A)
T24 construct: purchased Eurofins Discovery (DiscoverX KINOMEscan scanMAX)
Procedure: as §1

PLK2 = target: T25, PLK2 (Homo sapiens, UniProt Q9NYY3)
T25 construct: purchased Eurofins Discovery (DiscoverX KINOMEscan scanMAX)
Procedure: as §1

BUB1 = target: T26, BUB1 (Homo sapiens, UniProt O43683)
T26 construct: purchased Eurofins Discovery (DiscoverX KINOMEscan scanMAX)
Procedure: as §1

PIK3CA(H1047Y) = target: T27, PIK3CA(H1047Y) (Homo sapiens, UniProt P42336, H1047Y)
T27 construct: purchased Eurofins Discovery (DiscoverX KINOMEscan scanMAX)
Procedure: as §1

YANK2 = target: T28, YANK2 (Homo sapiens, UniProt Q9NY57)
T28 construct: purchased Eurofins Discovery (DiscoverX KINOMEscan scanMAX)
Procedure: as §1

CAMK2A = target: T29, CAMK2A (Homo sapiens, UniProt Q9UQM7)
T29 construct: purchased Eurofins Discovery (DiscoverX KINOMEscan scanMAX)
Procedure: as §1

NIM1 = target: T30, NIM1 (Homo sapiens, UniProt Q8IY84)
T30 construct: purchased Eurofins Discovery (DiscoverX KINOMEscan scanMAX)
Procedure: as §1

HIPK3 = target: T31, HIPK3 (Homo sapiens, UniProt Q9H422)
T31 construct: purchased Eurofins Discovery (DiscoverX KINOMEscan scanMAX)
Procedure: as §1

JNK2 = target: T32, JNK2 (Homo sapiens, UniProt P45984)
T32 construct: purchased Eurofins Discovery (DiscoverX KINOMEscan scanMAX)
Procedure: as §1

ZAP70 = target: T33, ZAP70 (Homo sapiens, UniProt P43403)
T33 construct: purchased Eurofins Discovery (DiscoverX KINOMEscan scanMAX)
Procedure: as §1

GSK3A = target: T34, GSK3A (Homo sapiens, UniProt P49840)
T34 construct: purchased Eurofins Discovery (DiscoverX KINOMEscan scanMAX)
Procedure: as §1

T31 sequence (Q9H422 whole entry): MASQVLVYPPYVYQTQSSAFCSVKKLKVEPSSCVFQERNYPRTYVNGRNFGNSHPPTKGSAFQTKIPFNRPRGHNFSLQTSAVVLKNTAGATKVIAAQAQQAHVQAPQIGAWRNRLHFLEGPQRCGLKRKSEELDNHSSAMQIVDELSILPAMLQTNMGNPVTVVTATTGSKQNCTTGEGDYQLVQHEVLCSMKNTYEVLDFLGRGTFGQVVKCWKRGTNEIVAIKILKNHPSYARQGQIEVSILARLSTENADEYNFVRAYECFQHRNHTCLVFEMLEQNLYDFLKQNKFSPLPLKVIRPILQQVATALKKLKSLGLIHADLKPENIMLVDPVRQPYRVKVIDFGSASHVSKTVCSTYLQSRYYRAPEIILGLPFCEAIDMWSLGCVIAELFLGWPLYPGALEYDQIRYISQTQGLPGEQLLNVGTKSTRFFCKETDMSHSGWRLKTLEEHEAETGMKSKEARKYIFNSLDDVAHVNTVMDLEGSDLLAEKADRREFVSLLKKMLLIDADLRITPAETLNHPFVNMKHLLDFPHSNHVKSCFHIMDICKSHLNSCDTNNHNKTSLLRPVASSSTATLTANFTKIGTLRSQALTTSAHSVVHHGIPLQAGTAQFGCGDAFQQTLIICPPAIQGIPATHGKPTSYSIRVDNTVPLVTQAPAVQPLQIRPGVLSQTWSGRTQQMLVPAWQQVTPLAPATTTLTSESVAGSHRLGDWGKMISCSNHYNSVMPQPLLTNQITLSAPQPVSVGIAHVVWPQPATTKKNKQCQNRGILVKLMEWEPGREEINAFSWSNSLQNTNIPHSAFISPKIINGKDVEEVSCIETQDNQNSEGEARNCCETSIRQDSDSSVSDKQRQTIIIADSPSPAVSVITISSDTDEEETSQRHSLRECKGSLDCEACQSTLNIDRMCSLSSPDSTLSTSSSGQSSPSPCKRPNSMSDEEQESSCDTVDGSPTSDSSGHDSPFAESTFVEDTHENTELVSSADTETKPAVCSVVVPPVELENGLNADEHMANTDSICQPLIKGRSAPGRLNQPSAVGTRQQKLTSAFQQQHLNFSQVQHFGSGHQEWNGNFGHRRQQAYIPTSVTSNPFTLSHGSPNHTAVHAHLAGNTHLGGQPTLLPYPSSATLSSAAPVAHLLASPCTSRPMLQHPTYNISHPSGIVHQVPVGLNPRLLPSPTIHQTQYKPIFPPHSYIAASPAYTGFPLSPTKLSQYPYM
T19 sequence (P49759 whole entry): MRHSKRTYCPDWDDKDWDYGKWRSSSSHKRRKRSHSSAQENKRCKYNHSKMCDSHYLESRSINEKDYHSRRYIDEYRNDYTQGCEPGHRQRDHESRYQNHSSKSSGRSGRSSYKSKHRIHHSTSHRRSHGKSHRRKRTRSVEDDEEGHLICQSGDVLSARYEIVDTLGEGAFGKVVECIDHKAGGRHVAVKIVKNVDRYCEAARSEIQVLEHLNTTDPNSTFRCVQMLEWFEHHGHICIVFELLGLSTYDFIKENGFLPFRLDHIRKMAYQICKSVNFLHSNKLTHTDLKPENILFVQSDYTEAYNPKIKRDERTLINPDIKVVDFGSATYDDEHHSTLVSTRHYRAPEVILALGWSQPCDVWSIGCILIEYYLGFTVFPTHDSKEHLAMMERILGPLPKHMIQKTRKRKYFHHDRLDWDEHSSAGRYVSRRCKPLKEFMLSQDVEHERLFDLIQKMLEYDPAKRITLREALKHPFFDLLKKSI
T28 sequence (Q9NY57 whole entry): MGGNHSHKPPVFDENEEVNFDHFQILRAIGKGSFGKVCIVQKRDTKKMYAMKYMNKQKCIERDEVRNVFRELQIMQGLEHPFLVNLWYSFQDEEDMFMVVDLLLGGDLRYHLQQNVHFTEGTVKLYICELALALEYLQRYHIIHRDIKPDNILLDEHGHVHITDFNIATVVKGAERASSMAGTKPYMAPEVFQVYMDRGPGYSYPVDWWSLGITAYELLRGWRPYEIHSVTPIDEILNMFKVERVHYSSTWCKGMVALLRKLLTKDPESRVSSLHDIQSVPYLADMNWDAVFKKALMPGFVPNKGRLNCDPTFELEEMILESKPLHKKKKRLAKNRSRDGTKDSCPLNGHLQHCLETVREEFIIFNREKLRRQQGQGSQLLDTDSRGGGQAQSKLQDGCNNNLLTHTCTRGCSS
T9 sequence (Q02750 whole entry): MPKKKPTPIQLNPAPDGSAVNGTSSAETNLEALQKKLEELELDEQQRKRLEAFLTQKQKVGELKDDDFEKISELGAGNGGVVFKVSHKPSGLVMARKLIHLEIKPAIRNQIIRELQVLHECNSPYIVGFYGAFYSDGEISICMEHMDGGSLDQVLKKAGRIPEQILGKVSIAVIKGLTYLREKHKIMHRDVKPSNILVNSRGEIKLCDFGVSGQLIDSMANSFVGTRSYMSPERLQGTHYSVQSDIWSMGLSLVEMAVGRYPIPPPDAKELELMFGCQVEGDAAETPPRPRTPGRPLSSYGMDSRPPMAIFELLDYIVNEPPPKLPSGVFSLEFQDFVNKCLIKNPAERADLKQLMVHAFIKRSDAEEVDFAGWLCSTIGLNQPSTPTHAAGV
T32 sequence (P45984 whole entry): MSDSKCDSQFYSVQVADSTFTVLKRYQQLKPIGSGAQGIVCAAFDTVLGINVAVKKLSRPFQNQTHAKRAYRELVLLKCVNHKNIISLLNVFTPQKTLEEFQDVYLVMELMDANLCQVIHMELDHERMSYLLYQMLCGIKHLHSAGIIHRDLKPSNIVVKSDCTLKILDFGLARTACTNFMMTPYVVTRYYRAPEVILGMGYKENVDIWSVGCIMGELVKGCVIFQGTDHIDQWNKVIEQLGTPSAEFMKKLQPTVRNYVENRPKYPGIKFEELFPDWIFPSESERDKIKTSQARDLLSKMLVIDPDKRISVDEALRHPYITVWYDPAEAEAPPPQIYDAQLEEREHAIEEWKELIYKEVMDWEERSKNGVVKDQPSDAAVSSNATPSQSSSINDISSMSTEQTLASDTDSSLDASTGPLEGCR
T4 sequence (P25098 whole entry): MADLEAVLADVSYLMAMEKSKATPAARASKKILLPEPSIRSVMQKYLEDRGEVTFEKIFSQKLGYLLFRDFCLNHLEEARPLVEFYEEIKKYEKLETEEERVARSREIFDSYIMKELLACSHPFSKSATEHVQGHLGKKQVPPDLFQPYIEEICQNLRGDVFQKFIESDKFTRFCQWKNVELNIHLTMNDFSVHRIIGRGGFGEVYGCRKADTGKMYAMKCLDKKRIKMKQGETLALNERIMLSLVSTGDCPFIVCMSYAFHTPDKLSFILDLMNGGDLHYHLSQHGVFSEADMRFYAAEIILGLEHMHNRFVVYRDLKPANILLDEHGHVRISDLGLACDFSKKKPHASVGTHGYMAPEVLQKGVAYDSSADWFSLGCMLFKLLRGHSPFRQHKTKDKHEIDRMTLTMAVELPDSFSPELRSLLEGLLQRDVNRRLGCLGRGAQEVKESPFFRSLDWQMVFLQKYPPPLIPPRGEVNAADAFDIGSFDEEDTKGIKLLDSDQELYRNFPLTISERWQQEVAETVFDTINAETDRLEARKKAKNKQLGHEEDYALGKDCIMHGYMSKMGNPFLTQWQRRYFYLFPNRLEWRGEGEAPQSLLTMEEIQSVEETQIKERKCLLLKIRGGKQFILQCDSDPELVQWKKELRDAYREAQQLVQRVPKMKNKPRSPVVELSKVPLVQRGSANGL
T3 sequence (Q9UHD2 whole entry): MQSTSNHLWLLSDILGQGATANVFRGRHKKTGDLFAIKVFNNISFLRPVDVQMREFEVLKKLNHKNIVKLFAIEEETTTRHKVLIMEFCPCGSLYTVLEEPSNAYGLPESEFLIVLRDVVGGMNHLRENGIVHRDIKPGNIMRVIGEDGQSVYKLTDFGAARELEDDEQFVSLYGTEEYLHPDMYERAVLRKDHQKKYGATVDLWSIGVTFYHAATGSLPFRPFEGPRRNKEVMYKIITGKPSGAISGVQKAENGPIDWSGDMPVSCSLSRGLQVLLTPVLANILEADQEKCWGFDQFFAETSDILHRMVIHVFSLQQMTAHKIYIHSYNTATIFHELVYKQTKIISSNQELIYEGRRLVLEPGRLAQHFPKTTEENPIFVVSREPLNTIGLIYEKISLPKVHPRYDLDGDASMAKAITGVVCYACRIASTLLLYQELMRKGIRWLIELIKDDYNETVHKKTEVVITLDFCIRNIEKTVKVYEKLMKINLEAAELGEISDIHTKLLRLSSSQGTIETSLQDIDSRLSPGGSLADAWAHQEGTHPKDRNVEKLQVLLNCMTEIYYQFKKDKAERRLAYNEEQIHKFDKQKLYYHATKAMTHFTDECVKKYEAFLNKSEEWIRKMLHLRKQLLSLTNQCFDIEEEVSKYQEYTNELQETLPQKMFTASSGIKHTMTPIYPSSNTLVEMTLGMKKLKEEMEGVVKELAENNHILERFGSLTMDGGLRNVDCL
T25 sequence (Q9NYY3 whole entry): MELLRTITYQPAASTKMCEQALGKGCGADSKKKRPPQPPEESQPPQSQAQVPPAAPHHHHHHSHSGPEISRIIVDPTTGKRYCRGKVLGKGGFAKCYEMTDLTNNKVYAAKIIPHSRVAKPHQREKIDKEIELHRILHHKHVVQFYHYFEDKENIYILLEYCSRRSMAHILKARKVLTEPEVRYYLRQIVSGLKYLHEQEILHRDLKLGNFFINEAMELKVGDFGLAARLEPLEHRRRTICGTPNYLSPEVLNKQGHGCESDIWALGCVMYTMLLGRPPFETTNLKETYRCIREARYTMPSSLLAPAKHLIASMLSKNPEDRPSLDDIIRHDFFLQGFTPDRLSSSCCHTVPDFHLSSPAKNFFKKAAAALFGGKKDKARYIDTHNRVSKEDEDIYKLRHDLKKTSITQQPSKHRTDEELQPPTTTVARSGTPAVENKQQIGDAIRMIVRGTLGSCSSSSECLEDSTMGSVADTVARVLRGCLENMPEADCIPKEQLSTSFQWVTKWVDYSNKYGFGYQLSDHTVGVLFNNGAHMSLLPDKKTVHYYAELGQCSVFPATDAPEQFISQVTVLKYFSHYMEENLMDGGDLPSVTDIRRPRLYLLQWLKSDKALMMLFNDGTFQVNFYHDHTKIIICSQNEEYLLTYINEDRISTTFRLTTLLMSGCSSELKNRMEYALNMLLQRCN

**Q.** Which remaining binding at 0.1 µM (KIT; 100 nM) does the source give for `Cc1cc(Nc2ccc(F)c(CC3(C(=O)N4CCC(F)(CN5CCN(c6ccc(N7CCC(=O)NC7=O)cn6)CC5)CC4)CCN(Cc4cccc(Cl)c4F)CC3)n2)n[nH]1` [SK5527] here?
**A.** 100%

**Q.** And the remaining binding at 1 µM (KIT; 1000 nM)?
**A.** 61%

**Q.** And the remaining binding at 0.1 µM (STK16; 100 nM)?
**A.** 100%

**Q.** What about the remaining binding at 1 µM (STK16; 1000 nM) of the same compound?
**A.** 69%

**Q.** What about the remaining binding at 0.1 µM (TBK1; 100 nM) of the same compound?
**A.** 99%

**Q.** And the remaining binding at 1 µM (TBK1; 1000 nM)?
**A.** 85%

**Q.** What about the remaining binding at 0.1 µM (GRK2; 100 nM) of the same compound?
**A.** 100%

**Q.** And the remaining binding at 1 µM (GRK2; 1000 nM)?
**A.** 100%

**Q.** What about the remaining binding at 0.1 µM (EGFR(L858R,T790M); 100 nM) of the same compound?
**A.** 82%

**Q.** What about the remaining binding at 1 µM (EGFR(L858R,T790M); 1000 nM) of the same compound?
**A.** 87%

**Q.** And the remaining binding at 0.1 µM ([1]; 100 nM)?
**A.** 68%

**Q.** And the remaining binding at 1 µM ([1]; 1000 nM)?
**A.** 19%

**Q.** And the remaining binding at 0.1 µM (MRCKB; 100 nM)?
**A.** 98%

**Q.** And the remaining binding at 1 µM (MRCKB; 1000 nM)?
**A.** 93%

**Q.** And the remaining binding at 0.1 µM (MEK3; 100 nM)?
**A.** 100%

**Q.** What about the remaining binding at 1 µM (MEK3; 1000 nM) of the same compound?
**A.** 82%

**Q.** And the remaining binding at 0.1 µM (MEK1; 100 nM)?
**A.** 76%

**Q.** What about the remaining binding at 1 µM (MEK1; 1000 nM) of the same compound?
**A.** 72%

**Q.** And the remaining binding at 0.1 µM (BRAF(V600E); 100 nM)?
**A.** 100%

**Q.** What about the remaining binding at 1 µM (BRAF(V600E); 1000 nM) of the same compound?
**A.** 100%

**Q.** And the remaining binding at 0.1 µM (SIK; 100 nM)?
**A.** 93%

**Q.** What about the remaining binding at 1 µM (SIK; 1000 nM) of the same compound?
**A.** 59%

**Q.** And the remaining binding at 0.1 µM (S6K1; 100 nM)?
**A.** 100%

**Q.** What about the remaining binding at 1 µM (S6K1; 1000 nM) of the same compound?
**A.** 100%

**Q.** What about the remaining binding at 0.1 µM (AURKB; 100 nM) of the same compound?
**A.** 100%

**Q.** What about the remaining binding at 1 µM (AURKB; 1000 nM) of the same compound?
**A.** 53%

**Q.** And the remaining binding at 0.1 µM (CSNK1A1L; 100 nM)?
**A.** 91%

**Q.** What about the remaining binding at 1 µM (CSNK1A1L; 1000 nM) of the same compound?
**A.** 87%

**Q.** What about the remaining binding at 0.1 µM (MARK1; 100 nM) of the same compound?
**A.** 100%

**Q.** What about the remaining binding at 1 µM (MARK1; 1000 nM) of the same compound?
**A.** 100%

**Q.** And the remaining binding at 0.1 µM (PIK4CB; 100 nM)?
**A.** 73%

**Q.** And the remaining binding at 1 µM (PIK4CB; 1000 nM)?
**A.** 65%

**Q.** What about the remaining binding at 0.1 µM (EPHB1; 100 nM) of the same compound?
**A.** 96%

**Q.** What about the remaining binding at 1 µM (EPHB1; 1000 nM) of the same compound?
**A.** 79%

**Q.** What about the remaining binding at 0.1 µM (QSK; 100 nM) of the same compound?
**A.** 89%

**Q.** And the remaining binding at 1 µM (QSK; 1000 nM)?
**A.** 90%

**Q.** What about the remaining binding at 0.1 µM (CLK1; 100 nM) of the same compound?
**A.** 92%

**Q.** And the remaining binding at 1 µM (CLK1; 1000 nM)?
**A.** 77%

**Q.** And the remaining binding at 0.1 µM (PIK3CA(M1043I); 100 nM)?
**A.** 100%

**Q.** What about the remaining binding at 1 µM (PIK3CA(M1043I); 1000 nM) of the same compound?
**A.** 100%

**Q.** And the remaining binding at 0.1 µM (INSR; 100 nM)?
**A.** 85%

**Q.** And the remaining binding at 1 µM (INSR; 1000 nM)?
**A.** 85%

**Q.** And the remaining binding at 0.1 µM (AKT1; 100 nM)?
**A.** 78%

**Q.** What about the remaining binding at 1 µM (AKT1; 1000 nM) of the same compound?
**A.** 100%

**Q.** What about the remaining binding at 0.1 µM (TNK1; 100 nM) of the same compound?
**A.** 66%

**Q.** What about the remaining binding at 1 µM (TNK1; 1000 nM) of the same compound?
**A.** 44%

**Q.** What about the remaining binding at 0.1 µM (KIT(V559D,V654A); 100 nM) of the same compound?
**A.** 100%

**Q.** And the remaining binding at 1 µM (KIT(V559D,V654A); 1000 nM)?
**A.** 97%

**Q.** And the remaining binding at 0.1 µM (PLK2; 100 nM)?
**A.** 100%

**Q.** And the remaining binding at 1 µM (PLK2; 1000 nM)?
**A.** 87%

**Q.** What about the remaining binding at 0.1 µM (BUB1; 100 nM) of the same compound?
**A.** 100%

**Q.** What about the remaining binding at 1 µM (BUB1; 1000 nM) of the same compound?
**A.** 100%

**Q.** And the remaining binding at 0.1 µM (PIK3CA(H1047Y); 100 nM)?
**A.** 95%

**Q.** And the remaining binding at 1 µM (PIK3CA(H1047Y); 1000 nM)?
**A.** 100%

**Q.** What about the remaining binding at 0.1 µM (YANK2; 100 nM) of the same compound?
**A.** 100%

**Q.** And the remaining binding at 1 µM (YANK2; 1000 nM)?
**A.** 100%

**Q.** And the remaining binding at 0.1 µM (CAMK2A; 100 nM)?
**A.** 98%

**Q.** And the remaining binding at 1 µM (CAMK2A; 1000 nM)?
**A.** 100%

**Q.** And the remaining binding at 0.1 µM (NIM1; 100 nM)?
**A.** 58%

**Q.** And the remaining binding at 1 µM (NIM1; 1000 nM)?
**A.** 76%

**Q.** What about the remaining binding at 0.1 µM (HIPK3; 100 nM) of the same compound?
**A.** 100%

**Q.** And the remaining binding at 1 µM (HIPK3; 1000 nM)?
**A.** 66%

**Q.** And the remaining binding at 0.1 µM (JNK2; 100 nM)?
**A.** 67%

**Q.** And the remaining binding at 1 µM (JNK2; 1000 nM)?
**A.** 74%

**Q.** What about the remaining binding at 0.1 µM (ZAP70; 100 nM) of the same compound?
**A.** 97%

**Q.** What about the remaining binding at 1 µM (ZAP70; 1000 nM) of the same compound?
**A.** 100%

**Q.** And the remaining binding at 0.1 µM (GSK3A; 100 nM)?
**A.** 100%

**Q.** And the remaining binding at 1 µM (GSK3A; 1000 nM)?
**A.** 94%
